Experimental data as given in patent publication US20030207830A1, “Mutant NDP kinases for antiviral nucleotide analog activation and therapeutic uses thereof” (priority 2002, published 2003).

Tests used:
[1] = target: T1, Dictyostelium NDP Kinase wt (Dictyostelium discoideum, UniProt P22887); assay: Pre-steady-state fluorescence stopped-flow phosphotransfer from nucleoside triphosphates, wild type Dd-NDPK; type: biochemical; details: average of three determinations
T1 construct: made in house
Procedure: (§1) The binding constants were determined at equilibrium by recording the increase in fluorescence (Schneider, 2000).
After mixing NDPK (1 μM) and NTP or an analogTP (10-500 μM), the intrinsic protein fluorescence was recorded for 10-200 sec. In each experiment, 400 pairs of data were recorded, and the data from 3-4 identical experiments were averaged and fitted to a number of non-linear analytical equations using the software provided by Hi-Tech.
(§2) The data were analyzed using the reaction scheme: [drawing 1]
The rate of this observed single step is: [formula]
(§3) and reaches a limiting value (k+2) at NTP saturation. […] Therefore, catalytic efficiencies of phosphorylation (CEphos=k+2/(k−1/k+1)=k+2/KS) were measured, which are equivalent to second order constants and allow a reliable comparison of a variety of NDP kinase substrates.

[2] = target: T2, Dictyostelium NDP Kinase N119S (Dictyostelium discoideum, UniProt P22887, N119S); assay: Pre-steady-state fluorescence stopped-flow phosphotransfer from nucleoside triphosphates, N119S Dd-NDPK; type: biochemical; details: pre-steady state, stopped-flow; average of three determinations
T2 construct: made in house
Procedure: (§4) All numbers in italics have already been published (Schneider, 1998, 2000) The kinetic constants were measured at the pre-steady-state level using a fluorescence stopped-flow device. The binding constants were determined at equilibrium by recording the increase in fluorescence (Schneider, 2000). Values are the average of three independent determinations.
(§5) As the diphosphate form of analogs were not always available, the triphosphate analogs were used to study phosphate transfer in reaction as in Scheme I. Experiments were performed with an Hi-Tech DX2 microvolume stopped-flow reaction (Schneider, 1998) at Aexc=296 nm (for Ado derivatives) or […] (for other nucleotides), 2 mm excitation slit and a 320 nm cutoff filter at the emission. After mixing NDPK (1 μM) and NTP or an analogTP (10-500 μM), the intrinsic protein fluorescence was recorded for 10-200 sec. In each experiment, 400 pairs of data were recorded, and the data from 3-4 identical experiments were averaged and fitted to a number of non-linear analytical equations using the software provided by Hi-Tech. All curves fitted to single exponentials.
as §2
(§6) In both the forward and the reverse reactions, the product concentration remains very low, thus the product binding can be neglected, and the observed single step could be attributed to the phosphotransfer (Schneider, 1998). The rate of this observed single step is: [formula]
(§7) and reaches a limiting value (k+2) at NTP saturation. Saturation could not be obtained with the concentrations of any NTP used here. Therefore, catalytic efficiencies of phosphorylation (CEphos=k+2/(k−1/k+1)=k+2/KS) were measured, which are equivalent to second order constants and allow a reliable comparison of a variety of NDP kinase substrates.

[3] = target: T3, Dictyostelium discoideum NDP kinase (Dd-NDPK) variant N119S, SEQ ID NO: 1 (Dictyostelium discoideum, UniProt P22887, N119S); assay: Pre-steady-state phosphotransfer, fluorescence stopped-flow; type: biochemical; details: for k2/Ks: catalytic efficiency of phosphotransfer, N119S, pre-steady state
T3 construct: made in house
Procedure: (§8) (A) Kinetics of reaction of phosphorylated Dictyostelium wild type and N119S NDP kinases by 100 μM Acyclovir diphosphate (Acy-DP). The phosphorylated enzyme was prepared with a stoichiometry #1 as described (Deville-Bonne 1996). The kinases were preincubated with ATP in excess in buffer T (50 mM Tris-HCl, pH 7.5, 5 mM MgCl2 and 75 mM KCl). The increase in fluorescence upon mixing the phospho-enzyme (1 μM, final concentration) with Acy-DP in buffer T at 20° C. was monitored with a stopped-flow. The solid lines represent the best fit of each curve to a monoexponential.
(§9) (B) Concentration dependence of the rate constant on Acy-DP concentation. The pseudo-first order rate constant for the reaction (kobs) was plotted against Acy-DP.
as §4
(§10) Wild type human NDPK-A and the mutants were expressed and purified according to Schneider et al., 2000, Mol Pharm. Recombinant wild type and mutant Dd-NDPK were obtained as described (Schneid, 1998a), except for N119Y NDP kinase which was partially purified by Q sepharose FF chromatography. Each protein was characterized by […] electrophoresis. The concentration of 17 kDa subunits of the enzyme was either determined by Bradford assay ([…]) or using an absorbance coefficient of ΔA^280=1.249 for a 1 mg/mL solution of human wild type and N115S NDPK-A, and =0.55 for wild type and mutant N119S, N119T Dd-NDP kinases, respectively.
as §5, §2, §6, §7

[4] = target: T4, Dictyostelium discoideum NDP kinase (Dd-NDPK), wild type (Dictyostelium discoideum, UniProt P22887); assay: as above; type: biochemical; details: catalytic efficiency of phosphotransfer, wt
T4 construct: made in house
Procedure: as §8, §9, §4, §10, §5, §2, §6, §7

[5] = target: T5, Dictyostelium discoideum NDP kinase inactive variant EI (H122G-F64W) (Dictyostelium discoideum, UniProt P22887, F64W/H122G); assay: biochemical; type: binding
T5 construct: made in house
Procedure: as §1
(§11) Analog binding affinity was measured using a variant of Dd-NDPK (EI) as described (Schneider, 2000). […] The mutation N119S was inserted in EI in order to measure the nucleotide affinity by fluorescence titration.
(§12) Altered bases as compared to the wild type sequence are underlined in bold. Sequences were checked by automatic sequencing. The mutant EI-N119S was obtained by mutation of the previously described F64W-H122G mutated NDP kinase (here called EI) (Schneider 2000).

[6] = target: T6, Dictyostelium discoideum NDP kinase inactive variant EI-N119S (H122G-F64W-N119S) (Dictyostelium discoideum, UniProt P22887, F64W/H122G/N119S); assay: biochemical; type: binding
T6 construct: made in house
Procedure: as §1, §11, §12

[7] = target: T7, human NDP kinase A (NDPK-A, nm23-H1), wild type (Homo sapiens, UniProt P15531); assay: Pre-steady-state phosphotransfer, fluorescence stopped-flow; type: biochemical; details: for k2/Ks: catalytic efficiency of phosphotransfer, NDPK-A, pre-steady state
T7 construct: made in house
Procedure: (§13) FIG. 3 depicts the catalytic efficiency of NDPK-A and mutants for nucleoside analogs. The rates of phosphorylation of pure recombinant NDP kinases (1 μM) were measured at the pre-steady state in a fluorescence stopped-flow with d4T-TP (10 to 80 μM). The catalytic efficiency (expressed in M^−1s^−1) was determined from the variation of the rate as a function of analog as shown in FIG. 2 (▾, NDPK-A, ♦ L55H, ● N115S, ▪ L55H-N115S).
(§14) The activity assays were performed at the pre-steady state level.
as §10
as §5, with “Hi-Tech.” for “Hi-Tech. All curves fitted to single exponentials.”
as §2, §6, §3

[8] = target: T8, human NDP kinase A (NDPK-A) variant L55H (Homo sapiens, UniProt P15531, L55H); assay: as above; type: biochemical; details: for k2/Ks: catalytic efficiency of phosphotransfer; for Specificity change (R): ratio of catalytic efficiencies analog vs natural nucleotide, mutant vs wild type
T8 construct: made in house; host or cells: E. coli
Procedure: as §13, §14
(§15) R, the specificity change, is the ratio of the catalytic efficiencies (for analog versus natural nucleotide) of the mutant compared to the wild type enzyme.
as §10
as §5, with “Hi-Tech.” for “Hi-Tech. All curves fitted to single exponentials.”
as §2, §6, §3

[9] = target: T9, human NDP kinase A (NDPK-A) variant L55H-N115S, SEQ ID NO: 3 (Homo sapiens, UniProt P15531, L55H/N115S); assay: as above; type: biochemical; details: for Specificity change (R): ratio of catalytic efficiencies analog vs natural nucleotide, mutant vs wild type; for enhancement of ability to phosphorylate: substitution of Asn 115 for Ser and Leu 55 for His
T9 construct: made in house; host or cells: E. coli
Procedure: as §13, §14, §15, §10
as §5, with “Hi-Tech.” for “Hi-Tech. All curves fitted to single exponentials.”
as §2, §6, §3

[10] = target: T10, human NDP kinase A (NDPK-A) variant N115S, SEQ ID NO: 2 (Homo sapiens, UniProt P15531, N115S); assay: as above; type: biochemical; details: for k2/Ks: catalytic efficiency of phosphotransfer; for Specificity change (R): ratio of catalytic efficiencies analog vs natural nucleotide, mutant vs wild type
T10 construct: made in house; host or cells: E. coli
Procedure: as §13, §14, §15, §10
as §5, with “Hi-Tech.” for “Hi-Tech. All curves fitted to single exponentials.”
as §2, §6, §3

T3 sequence (P22887 whole entry N119S): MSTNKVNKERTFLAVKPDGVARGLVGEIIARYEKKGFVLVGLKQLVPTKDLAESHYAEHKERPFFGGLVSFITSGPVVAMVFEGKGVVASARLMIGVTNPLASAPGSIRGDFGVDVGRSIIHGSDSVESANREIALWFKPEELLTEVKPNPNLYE
T7 sequence (P15531 whole entry): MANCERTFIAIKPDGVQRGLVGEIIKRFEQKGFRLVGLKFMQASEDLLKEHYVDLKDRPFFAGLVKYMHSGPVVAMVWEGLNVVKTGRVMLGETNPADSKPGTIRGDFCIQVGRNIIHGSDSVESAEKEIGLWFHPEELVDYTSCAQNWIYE
T10 sequence (P15531 whole entry N115S): as the sequence (P15531 whole entry) above, with N115S counted along it
T8 sequence (P15531 whole entry L55H): as the sequence (P15531 whole entry) above, with L55H counted along it
T6 sequence (P22887 whole entry F64W/N119S/H122G): as the sequence (P22887 whole entry N119S) above, with F64W, H122G counted along it
T9 sequence (P15531 whole entry L55H/N115S): as the sequence (P15531 whole entry) above, with L55H, N115S counted along it
T5 sequence (P22887 whole entry F64W/H122G): as the sequence (P22887 whole entry N119S) above, with F64W, S119N, H122G counted along it
T4 sequence (P22887 whole entry): as the sequence (P22887 whole entry N119S) above, with S119N counted along it
T2 sequence (P22887 whole entry N119S): as the sequence (P22887 whole entry N119S) above
T1 sequence (P22887 whole entry): as the sequence (P22887 whole entry N119S) above, with S119N counted along it

Structure (SMILES) | k2/Ks [3] [M⁻¹ s⁻¹] | k2/Ks [4] [M⁻¹ s⁻¹] | Kd [5] [µM] | Kd [6] [µM] | k2/Ks [7] [M⁻¹ s⁻¹] | k2/Ks ([8]; L55H, pre-steady state) [M⁻¹ s⁻¹] | Specificity change (R) [8] | Specificity change (R) [9] | k2/Ks ([10]; N115S, pre-steady state) [M⁻¹ s⁻¹] | Specificity change (R) [10] | enhancement of ability to phosphorylate [9] | further results
Nc1ncnc2c1ncn2[C@@H]1O[C@H](COP(=O)(O)OP(=O)(O)OP(=O)(O)O)[C@@H](O)[C@H]1O [ATP] | 250000 | 4.5e+06 | 0.2 | 2.4 | – | – | – | – | – | – | – | k2/Ks wt (catalytic efficiency of phosphotransfer) [1]: 4.5e+06 M⁻¹ s⁻¹; k2/Ks N119S (catalytic efficiency of phosphotransfer) [2]: 250000 M⁻¹ s⁻¹
Nc1nc2c(ncn2COCCOP(=O)(O)OP(=O)(O)OP(=O)(O)O)c(=O)[nH]1 [acyclovirTP] | 1650 | 350 | 190 | 20 | 25 | 160 | (3.4) | (460) | 250 | (150) | – | ranking as analog substrate ([3]; N119S NDP kinase): best analog substrate; increase of affinity by Ser (N119S) ([6]; relative KD, EI versus EI-N119S): 10 fold; k2/Ks ([9]; catalytic efficiency of phosphotransfer, L55H-N115S, pre-steady state): 2600 M⁻¹ s⁻¹
Nc1nc2c(ncn2COCCO)c(=O)[nH]1 [acyclovir] | – | – | – | – | – | – | – | – | – | – | 200-300 times | –
Cc1cn([C@H]2C=C[C@@H](COP(=O)(O)OP(=O)(O)OP(=O)(O)O)O2)c(=O)[nH]c1=O [d4T-TP, dideoxy, didehydro-TTP] | – | – | – | – | 700 | 1280 | (10) | (210) | 6250 | (120) | – | times more slowly than with dTTP ([7]; NDPK-A wild type): 1700 times; reaction rate compared with Dd-NDPK ([8]; L55H mutant): at the same rate as Dd-NDPK; factor of rate versus wild type NDPK-A ([8]; L55H, pre-steady state): 9; factor of rate versus wild type NDPK-A ([9]; L55H-N115S, pre-steady state): 80; reactivity compared with dTTP ([9]; double mutant, catalytic efficiency): eight fold less; factor of rate versus wild type NDPK-A ([10]; N115S, pre-steady state): 1.8
Cc1cn([C@H]2C=C[C@@H](CO)O2)c(=O)[nH]c1=O [d4T] | – | – | – | – | – | – | – | – | – | – | 200-300 times | –
